Here are results for 26 compounds from patent US20210246115A1 (Bioimics AB, priority 2017, published 2021).

For test [1], the system named is Staphylococcus aureus subsp. aureus (ATCC29213). The test can be described thus: MIC, broth microdilution (CLSI), Staphylococcus aureus ATCC29213. Particulars: for MIC: Staphylococcus aureus. The class given is cell-based. (In general: Broth dilution looks for growth in wells or tubes with falling amounts of substance.)
In test [2] the test system is Escherichia coli (ATCC25922). Kind of test: MIC, broth microdilution (CLSI), Escherichia coli. Particulars: for MIC: Escherichia coli, ATCC25922, read-out: E. coli ATCC 25922 MIC, Table XIII.
Test [3] concerns E. coli RNase P RNA, M1 RNA. Kind of test: Inhibition of bacterial RNase P activity, IC50 determination (cleavage of pATSerUG by M1 RNA). To be noted: NI: No inhibition. Format: biochemical.
Where [4] appears, read: ATCC29213, read-out: S. aureus ATCC 29213 MIC, Table XIII.
Where [5] appears, read: ATCC29213, Table XIII, read-out: S. aureus ATCC 29213 MIC.

Converted amounts (≈) assume the structure as drawn. Structures can show the parent of a compound that is named as a salt. Where two headings read alike, the source gives them in different places.

The term MIC denotes the lowest concentration that inhibits growth of the organism. As usually defined, the IC50 is the concentration that gives 50% inhibition. For the compound `Cc1cccc(-c2ccc3c(c2)c(C2CCCC(NC4CCNCC4)C2)cn3C2CCCCC2)c1` (stereo not drawn) [Compound 396, N-(3-(1-cyclohexyl-5-(m-tolyl)-1H-indol-3-yl)cyclohexyl)piperidin-4-amine hydrochloride salt], the minimum inhibitory concentration (MIC) in test [1] (setting [4]) came to 2 µg/mL; in test [2], 4 µg/mL. This compound displayed an IC50 in test [3] of 12 µM.
Regarding `Cc1cccc(C(CCNCCCN)c2cn(CC3CCCCC3)c3ccc([N+](=O)[O-])cc23)c1` (stereo not drawn) [Compound 424, N1-(3-(1-cyclohexylmethyl)-5-nitro-1H-indol-3-yl)-3-(m-tolyl)propyl)propane-1,3-diamine hydrochloride salt], the values for the minimal inhibitory concentration (MIC) in test [1] (setting [5]) and in test [2] were 2 µg/mL and 4 µg/mL, respectively. Further, the IC50 in test [3] was determined as 8.5 µM.
As to `CCCCCCCCn1cc(C(CCNCCCN)C(CC)CC)c2ccccc21.Cl.Cl` (stereo not drawn) [Compound 426, N1-(4-ethyl-3-(1-octyl-1H-indol-3-yl)hexyl)propane-1,3-diamine hydrochloride salt], the MIC in test [1] (setting [5]) and in test [2] was 4 µg/mL throughout. The same compound registered an IC50 in test [3] of 8.3 µM.
For the compound `NC1CCC(NCCC(c2cccc(OC(F)(F)F)c2)c2cn(C3CCCCC3)c3ccccc23)CC1` [Compound 393, (1S,4S)- -N1-(3-(1-cyclohexyl-1H-indol-3-yl)-3-(3-(trifluoromethoxy)phenyl)propyl)cyclohexane-1,4-diamine hydrochloride salt], the MIC in test [1] (setting [4]) amounted to 4 µg/mL; in test [2], 8 µg/mL. Moreover, in test [3] (hydrochloride salt), the IC50 was found to be 16 µM.
In the case of `NC1CCC(NCCC(c2cccc(OC(F)(F)F)c2)c2cn(C3CCCCC3)c3ccccc23)CC1` [Compound 397, (1S,4S)-N1-(3-(1-cyclohexyl-1H-indol-3-yl)-3-(3-(trifluoromethoxy)phenyl)propyl)cyclohexane-1,4-diamine hydrochloride salt], the “S. aureus ATCC 29213 MIC” value in test [1] (Table XIII, hydrochloride salt) was found to be 2 µg/mL. Further, the “E. coli ATCC 25922 MIC” value in test [2] (Table XIII) is 8 µg/mL. Also, in test [3] (hydrochloride salt), the IC50 turned out to be 6 µM.
For `CC(C)=CCC/C(C)=C/Cn1cc(C(CCNCCCN)C2CCCCC2)c2ccccc21` (stereo not drawn) [Compound 421, (E)-N1-(3-cyclohexyl-3-(1-(3,7-dimethylocta-2,6-dien-1-yl)-1H-indol-3-yl)propyl)propane-1,3-diamine], the MIC in test [1] (setting [5]) amounted to 4 µg/mL (≈ 8.89 µM); in test [2], 8 µg/mL (≈ 17.8 µM). In test [3], this compound gave an IC50 of 8.3 µM.
Consider `N#Cc1ccc2c(c1)c(C(CCNC1CCNC1)C1CCCCC1)cn2C1CCCCC1` (stereo not drawn) [Compound 413, 1-cyclohexyl-3-(1-cyclohexyl-3-(pyrrolidin-3-ylamino)propyl)-1H-indole-5-carbonitrile hydrochloride salt], for which the MIC in test [1] (setting [4]) was determined as 4 µg/mL; in test [2] it was 8 µg/mL. In addition, the midpoint of inhibition in test [3], the IC50, lay at 20 µM.
Regarding `Cc1ccccc1-c1ccc2c(c1)c(CCCNCCCN)cn2C1CCCCC1.Cl.Cl` [Compound 362, N1-(3-(1-cyclohexyl-5-(o-tolyl)-1H-indol-3-yl)propyl)propane-1,3-diamine hydrochloride salt], the MIC in test [1] (setting [5]) and in test [2] was 4 µg/mL throughout. Further, the IC50 in test [3] came to 8.3 µM.
`Cl.Cl.N#Cc1ccc2c(c1)c(C(CCN[C@H]1CC[C@H](N)CC1)C1CCCCC1)cn2C1CCCCC1` (stereo partly drawn) [Compound 407, 3-(3-(((1R,4R)-4-aminocyclohexyl)amino)-1-cyclohexylpropyl)-1-cyclohexyl-1H-indole-5-carbonitrile salt]: the minimum inhibitory concentration (MIC) in test [1] (setting [5]) was determined as 4 µg/mL; in test [2] it was 8 µg/mL. Further, 23 µM corresponded to half-maximal inhibition in test [3] (IC50).
For `Cc1cccc(C(CCN[C@H]2CC[C@H](N)CC2)c2cn(C3CCCC3)c3ccccc23)c1.Cl.Cl` (stereo partly drawn) [Compound 332, (1R,4R)-N1-(3-(1-cyclopentyl-1H-indol-3-yl)-3-(m-tolyl)propyl) cyclohexane-1,4-diamine hydrochloride salt], in that order: 8 µg/mL, 8 µg/mL and 39 µM.
As for `Cc1cccc(CC(CCNC2CCC(N)CC2)c2cn(C3CCCCC3)c3ccccc23)c1.Cl.Cl` [Compound 408, (1R,4R)-N1-(3-(1-cyclohexyl-1H-indol-3-yl)-4-(m-tolyl)butyl)cyclohexane-1,4-diamine hydrochloride salt], the MIC was determined as 4 µg/mL in test [1] (setting [5]) and 8 µg/mL in test [2]. In addition, inhibition in test [3] was half-maximal at 21 µM (IC50).
Regarding `Cc1cccc(C(CCNCCCN)c2cn(C3CCNCC3)c3ccccc23)c1.Cl.Cl.Cl` (stereo not drawn) [Compound 322, N1-(3-(1-(piperidin-4-yl)-1H-indol-3-yl)-3-(m-tolyl)propyl)propane-1,3-diamine hydrochloride salt], the MIC in test [1] (setting [5]) is 16 µg/mL; in test [2], greater than 128 µg/mL. For the same compound, the IC50 in test [3] was determined as 120 µM.
The corresponding values for `Cc1cccc(C(CCNCCCN)c2cn(C3CCCCC3)c3ccc(Br)cc23)c1.Cl.Cl` (stereo not drawn) [Compound 655, N1-(3-(5-bromo-1-cyclohexyl-1H-indol-3-yl)-3-(m-tolyl)propyl)propane-1,3-diamine hydrochloride salt] are 4 µg/mL, 4 µg/mL and 11 µM.
Consider `Cc1cccc(C(CCNCCCN)c2cn(C3CCCC3)c3ccccc23)c1.Cl.Cl` (stereo not drawn) [Compound 334, N1-(3-(1-cyclopentyl-1H-indol-3-yl)-3-(m-tolyl)propyl)propane-1,3-diamine hydrochloride salt], for which the MIC in test [1] (setting [5]) and in test [2] was 8 µg/mL in each case. This compound also came in with an IC50 in test [3] of 68 µM.
For `NCCCNCCC(c1cn(C2CCCCC2)c2ccccc12)C1CCCCC1` (stereo not drawn) [Compound 383, N1-(3-cyclohexyl-3-(1-cyclohexyl-1H-indol-3-yl)propyl)propane-1,3-diamine], the MIC in test [1] (setting [5]) and in test [2] was 4 µg/mL (≈ 10.1 µM) throughout. Also, the half-maximal inhibitory concentration (IC50) in test [3] is 28 µM.
For `Cc1cccc(C(CCNCCCN)c2cn(C3CCCCC3)c3ccc(-c4ccncc4)cc23)c1.Cl.Cl` (stereo not drawn) [Compound 412, N1-(3-(1-cyclohexyl-5-(pyridin-4-yl)-1H-indol-3-yl)-3-(m-tolyl)propyl) propane-1,3-diamine hydrochloride salt], the values for the MIC in test [1] (setting [5]) and in test [2] were 2 µg/mL and 4 µg/mL, respectively. Besides, the IC50 in test [3] turned out to be 18 µM.
Regarding `Cl.Cl.NCCCNCCC(c1cccc(OC(F)(F)F)c1)c1cn(C2CCCCC2)c2ccccc12` (stereo not drawn) [Compound 370, N1-(3-(1-cyclohexyl-1H-indol-3-yl)-3-(3-(trifluoromethoxy)phenyl)propyl) propane-1,3-diamine salt], the MIC in test [1] (setting [5]) and in test [2] was 4 µg/mL in each case. Moreover, in test [3], the IC50 is 8.4 µM.
`Cl.Cl.NCCCNCCC(c1cn(C2CCCCC2)c2ccccc12)C1CCCC1` (stereo not drawn) [Compound 423, N1-(3-(1-cyclohexyl-1H-indol-3-yl)-3-cyclopentylpropyl) propane-1,3-diamine hydrochloride salt]: the MIC in test [1] (setting [5]) turned out to be 8 µg/mL; in test [2], 2 µg/mL. The compound further came in with an IC50 in test [3] of 31 µM.
For `Cc1cccc(C(CCN[C@H]2CC[C@H](N)CC2)c2cn(C3CCCCC3)c3ccc(-c4ccnn4C)cc23)c1.Cl.Cl` (stereo partly drawn) [Compound 409, (1R,4R)-N1-(3-(1-cyclohexyl-5-(1-methyl-1H-pyrazol-5-yl)-1H-indol-3-yl)-3-(m-tolyl)propyl)cyclohexane-1,4-diamine hydrochloride salt], in that order: 4 µg/mL, 16 µg/mL and 39 µM.
Consider `Cc1cccc(-c2ccc3c(c2)c(CCNCCCN)cn3C2CCCCC2)c1.Cl.Cl` [Compound 384, N1-(2-(1-cyclohexyl-5-(m-tolyl)-1H-indol-3-yl)ethyl)propane-1,3-diamine hydrochloride salt], for which the MIC in test [1] (setting [5]) and in test [2] was 4 µg/mL each time. Further, inhibition in test [3] was half-maximal at 19 µM (IC50).
Consider `Cc1ccccc1C(CCNCCCN)c1cn(C2CCCCC2)c2ccccc12.Cl.Cl` (stereo not drawn) [Compound 345, N1-(3-(1-cyclohexyl-1H-indol-3-yl)-3-(o-tolyl)propyl)propane-1,3-diamine hydrochloride salt], for which the MIC in test [1] (setting [5]) came out at 8 µg/mL; in test [2], 4 µg/mL. In addition, the IC50 in test [3] stood at 41 µM.
The corresponding values for `NCCCNC1CCCC(c2cn(C3CCCCC3)c3ccc(Br)cc23)C1` (stereo not drawn) [Compound 380, N1-(3-(5-bromo-1-cyclohexyl-1H-indol-3-yl)cyclohexyl)propane-1,3-diamine salt] are 4 µg/mL, 4 µg/mL and 35 µM.
As for `Cc1cccc(C(CCN(CCCN)CCCN)c2cn(C3CCCCC3)c3ccccc23)c1` (stereo not drawn) [Compound 363, N1-(3-aminopropyl)-N1-(3-(1-cyclohexyl-1H-indol-3-yl)-3-(m-tolyl)propyl)propane-1,3-diamine hydrochloride salt], the MIC in test [1] (setting [4]) was 16 µg/mL; in test [2], 32 µg/mL. This compound also displayed an IC50 in test [3] of 12 µM.
Consider `N#Cc1ccc2c(C(CCNC3CCC(N)CC3)c3cccc(OC(F)(F)F)c3)cn(C3CCCCC3)c2c1` [Compound 415, 3-(3-(((1S,4S)-4-aminocyclohexyl)amino)-1-(3-(trifluoromethoxy)phenyl)propyl)-1-cyclohexyl-1H-indole-6-carbonitrile hydrochloride salt], for which the MIC worked out at 4 µg/mL in test [1] (setting [4]) and 16 µg/mL in test [2]. The IC50 in test [3] was 16 µM.
In the case of `Cl.Cl.N#Cc1ccc2c(C(CCNCCCN)c3cccc(OC(F)(F)F)c3)cn(C3CCCCC3)c2c1` (stereo not drawn) [Compound 410, 3-(3-((3-aminopropyl)amino)-1-(3-(trifluoromethoxy)phenyl)propyl)-1-cyclohexyl-1H-indole-6-carbonitrile salt], the minimal inhibitory concentration (MIC) in test [1] (setting [5]) and in test [2] was 4 µg/mL each time. Moreover, the IC50 in test [3] worked out at 10 µM.
`Cc1cccc(C(CCNC2CCN(C(N)=O)CC2)c2cn(C3CCCCC3)c3ccccc23)c1.Cl.Cl` (stereo not drawn) [Compound 374, 4-((3-(1-cyclohexyl-1H-indol-3-yl)-3-(m-tolyl)propyl)amino)piperidine-1-carboxamide hydrochloride salt]: the MIC in test [1] (setting [5]) is 16 µg/mL; in test [2], greater than 128 µg/mL. In test [3], this compound showed an IC50 of 53 µM.
